Measured values: patent US11667645B2, “Granzyme B directed imaging and therapy” (CytoSite Biopharma Inc., priority 2018, dated 2023)

Target: Granzyme B (human lymphocytes) (Homo sapiens (Human), UniProt P10144)
Assay: human Granzyme B biochemical assay
Conditions: Granzyme B (human lymphocytes) 5 nM, substrate Ac-IETD-AFC 200 μM, Cpd incubation with enzyme 30 mins, 22° C., read time 60 mins; read-out: IC50
In short: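 Fluorogenic Ac-IETD-AFC cleavage (Ex 400/Em 505 nm) read after 60 min at 22 °C, following 30 min, 22 °C enzyme–compound pre-incubation. Working stocks: enzyme 10 nM in 0.1% BSA buffer, substrate 800 µM, compound 8 points, 3.16-fold from 40 µM. Controls set 0% (DMSO) and 100% (standard inhibitor) inhibition; IC50 fitted.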

Granzyme B (human lymphocytes), sequence (P10144 21-247): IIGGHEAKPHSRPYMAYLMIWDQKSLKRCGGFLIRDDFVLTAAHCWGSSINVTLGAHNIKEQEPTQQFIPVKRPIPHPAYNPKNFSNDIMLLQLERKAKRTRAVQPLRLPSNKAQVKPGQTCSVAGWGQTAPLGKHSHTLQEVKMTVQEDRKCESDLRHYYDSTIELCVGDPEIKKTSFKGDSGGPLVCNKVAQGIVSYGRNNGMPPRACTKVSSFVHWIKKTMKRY

Structure (SMILES): CCC(CC)[C@H](NC(=O)c1ccccc1)C(=O)N[C@H]1CCc2cccc3c2N(C1=O)[C@H](C(=O)NCc1c[nH]nn1)C3 [Compound C073, (2S,5S)-5-((S)-2-Benzoylamino-3-ethyl-pentanoylamino)-4-oxo-1,2,4,5,6,7-hexahydro-azepino[3,2,1-hi]indole-2-carboxylic acid (1H-[1,2,3]triazol-4-ylmethyl)-amide]
- IC50: 301 to 1000 nM

Structure (SMILES): CCC(CC)[C@H](NC(C)=O)C(=O)N[C@H]1CCc2cccc3c2N(C1=O)[C@H](C(=O)NCc1c[nH]nn1)C3 [Compound C074, (2S,5S)-5-((S)-2-Acetylamino-3-ethyl-pentanoylamino)-4-oxo-1,2,4,5,6,7-hexahydro-azepino[3,2,1-hi]indole-2-carboxylic acid (1H-[1,2,3]triazol-4-ylmethyl)-amide]
- IC50: 1 to 300 nM

Structure (SMILES): O=C(Cc1csc2ccccc12)N[C@H](C(=O)N[C@H]1CCc2cccc3c2N(C1=O)[C@H](C(=O)NCc1c[nH]nn1)C3)C1CCCC1 [Compound C075, (2S,5S)-5-[(S)-2-(2-Benzo[b]thiophen-3-yl-acetylamino)-2-cyclopentyl-acetylamino]-4-oxo-1,2,4,5,6,7-hexahydro-azepino[3,2,1-hi]indole-2-carboxylic acid (1H-[1,2,3]triazol-4-ylmethyl)-amide]
- IC50: 1 to 300 nM

Structure (SMILES): O=C(N[C@H](C(=O)N[C@H]1CCc2cccc3c2N(C1=O)[C@H](C(=O)NCc1c[nH]nn1)C3)C1CCCC1)c1ccccc1 [Compound C076, (2S,5S)-5-((S)-2-Benzoylamino-2-cyclopentyl-acetylamino)-4-oxo-1,2,4,5,6,7-hexahydro-azepino[3,2,1-hi]indole-2-carboxylic acid (1H-[1,2,3]triazol-4-ylmethyl)-amide]
- IC50: 1 to 300 nM

Structure (SMILES): CC(=O)N[C@H](C(=O)N[C@H]1CCc2cccc3c2N(C1=O)[C@H](C(=O)NCc1c[nH]nn1)C3)C1CCCC1 [Compound C077, (2S,5S)-5-((S)-2-Acetylamino-2-cyclopentyl-acetylamino)-4-oxo-1,2,4,5,6,7-hexahydro-azepino[3,2,1-hi]indole-2-carboxylic acid (1H-[1,2,3]triazol-4-ylmethyl)-amide]
- IC50: 1 to 300 nM

Structure (SMILES): O=C(Cc1csc2ccccc12)N[C@H](C(=O)N[C@H]1CCc2cccc3c2N(C1=O)[C@H](C(=O)NCc1c[nH]nn1)C3)C1CCCCC1 [Compound C078, (2S,5S)-5-[(S)-2-(2-Benzo[b]thiophen-3-yl-acetylamino)-2-cyclohexyl-acetylamino]-4-oxo-1,2,4,5,6,7-hexahydro-azepino[3,2,1-hi]indole-2-carboxylic acid (1H-[1,2,3]triazol-4-ylmethyl)-amide]
- IC50: 301 to 1000 nM

Structure (SMILES): O=C(N[C@H](C(=O)N[C@H]1CCc2cccc3c2N(C1=O)[C@H](C(=O)NCc1c[nH]nn1)C3)C1CCCCC1)c1ccccc1 [Compound C079, (2S,5S)-5-((S)-2-Benzoylamino-2-cyclohexyl-acetylamino)-4-oxo-1,2,4,5,6,7-hexahydro-azepino[3,2,1-hi]indole-2-carboxylic acid (1H-[1,2,3]triazol-4-ylmethyl)-amide]
- IC50: 1000 to 5000 nM

Structure (SMILES): CC(=O)N[C@H](C(=O)N[C@H]1CCc2cccc3c2N(C1=O)[C@H](C(=O)NCc1c[nH]nn1)C3)C1CCCCC1 [Compound C080, (2S,5S)-5-((S)-2-Acetylamino-2-cyclohexyl-acetylamino)-4-oxo-1,2,4,5,6,7-hexahydro-azepino[3,2,1-hi]indole-2-carboxylic acid (1H-[1,2,3]triazol-4-ylmethyl)-amide]
- IC50: 301 to 1000 nM

Structure (SMILES): CC(=O)N[C@H](C(=O)N[C@H]1CCc2cccc3c2N(C1=O)[C@H](C(=O)NCc1c[nH]nn1)C3)C1CC1 [Compound C081, (2S,5S)-5-((S)-2-Acetylamino-2-cyclopropyl-acetylamino)-4-oxo-1,2,4,5,6,7-hexahydro-azepino[3,2,1-hi]indole-2-carboxylic acid (1H-[1,2,3]triazol-4-ylmethyl)-amide]
- IC50: 301 to 1000 nM
